Results on five compounds are retold here after publication PMC7170901, “Design and efficient synthesis of pyrazoline and isoxazole bridged indole C-glycoside hybrids as potential anticancer agents” (Scientific Reports, 2020).

Holding throughout (type): cell-based
Data set [1] has as its system MDA-MB-231 (human breast cancer) cell line. Nature of the data set: MTT cell viability assay in MDA-MB-231 cells. Particulars: Homo sapiens; for viability at 10 µM / viability at 25 µM / viability at 50 µM: MDA-MB-231, 72 h, 72 h, MTT, read-out: Cell Viability (%) ± SD; for viability at 10 µM: MDA-MB-231, 10 µM; for viability at 25 µM: MDA-MB-231, 25 µM; for viability at 50 µM: MDA-MB-231, 50 µM; for IC50: MDA-MB-231, MTT, treated for 48 h, 1, 5, 10, 25 and 50 µM. The method, then:
IC50 values were determined by plotting values of percent cell viability against concentration of each of these compounds. […] The experiments were performed in triplicates, n = 3 and ± SE value was calculated for each data point.
The human breast cancer cell line MDA-MB-231 were cultured in Dulbecco’s Modified Eagle’s Medium (DMEM) (Gibco, St. Louis, USA) supplemented with 10% heat inactivated FBS (Fetal Bovine Serum, Gibco, USA) and 1% penicillin-streptomycin (Gibco Canada) in humidified CO2 incubator at 37 °C. The cells were maintained as a monolayer in 100 mm culture plate. The cells used for each experiment were of less than 8 passage number. Sub culturing of cells was performed every third day, followed by trypsin EDTA treatment.
Cell viability assay was performed as per standard protocols. […] Ltd, India). In brief, this is a homogeneous, colorimetric method for determining the number of viable cells in proliferation, cytotoxicity or chemosensitivity assays. MTT is bio reduced by cells into a formazan product that is soluble in the tissue culture medium. […] The absorbance of the formazan product at 595 nm was measured directly from 96-well assay plates without additional processing using a multimode plate reader (Bio-Rad) (iMark, India), as absorbance is directly proportional to the number of viable cells in culture. The percentage of viable cells in each group is determined with respect to the untreated control cells.

Another data set relates to MCF-7 cells. Nature of the data set: LDH cytotoxicity assay. Conditions: MCF-7, 25 µM; for cytotoxicity at 25 µM: Homo sapiens, MCF7, 48 h, read-out: % Cytotoxicity (LDH release relative to maximum LDH control); for % Cytotoxicity (LDH release relative to maximum LDH control): 48 h, 25 µM. The source says: When living cells treated with a cytotoxic compound, they could either stop growing and dividing, or die through either of two distinct processes i.e. necrosis or apoptosis. Basically, cells undergoing necrosis (accidental cell death) swell and lose membrane integrity before shutting down and releasing their intracellular contents into the surrounding environment. This type of cell death is usually triggered by external factors such as toxic chemical or traumatic physical events. When the cell membranes are damaged or compromised in any way, lactate dehydrogenase (LDH), a soluble yet stable enzyme found inside every living cell, gets released into the surrounding extracellular space. The presence of this enzyme in the culture medium can be used as a cell death marker. The relative amounts of live and dead cells within the medium can then be quantitated by measuring the amount of released LDH using a colorimetric or fluorometric LDH cytotoxicity assay.
Cytotoxicity was assessed with an LDH-cytotoxicity detection kit (Hi media, CCK036), Assays was performed according to assay protocol. Compound was taken at 25 μM concentration. The % of Cytotoxicity was calculated by this formula.
% Cytotoxicity = 100 × A − C/B − C, Where, A = Average absorbance of test. Average absorbance of background control (or vehicle control if applicable), B = Average absorbance of maximum LDH control − Average absorbance of volume correction control C = Average absorbance of untreated control − Average absorbance of background control.
Lactate Dehydrogenase Cell Assay Materials & Methods: (Himedia, product code; […]
Lactate dehydrogenase (LDH) is a cytoplasmic enzyme present in all mammalian cells. Plasma membrane of live cells is impermeable to LDH. However it is rapidly released into the culture medium when plasma membrane is damaged. The quantity of the leaked LDH is used as a measure of cell cytotoxicity. Due to low molecular weight (35kDa) LDH is easily released from the cells even with very minor damage or perturbations in the membrane. This makes the LDH release assay very sensitive.
This Kit has been designed for rapid determination of cell cytotoxicity using an enzyme coupled […]
Lactate Dehydrogenase (LDH) is based on an enzyme coupled reaction in which the LDH released from cells with damaged membrane reduces the tetrazolium dye to a colored formazan product. The reaction takes place in two steps - Step 1:
LDH catalyzes the conversion of lactate to pyruvate via reduction of NAD+ to NADH.
NADH thus generated reduces the tetrazolium dye to a colored formazan product which can be measured spectrophotometrically.
• Kit contents: CCK036(A) LDH reagent 5 x 5ml -20 °C in dark CCK036(B) Lysis solution 5ml -20 °C in dark
CCK036(C) Stop solution 25ml -20 °C in dark
• Cells in appropriate medium
• Adjustable pipettes and a repeat pipettor
• 96-well plate for culturing the cells
• 96-well plate reader capable of measuring the Absorbance at 450nm and more than […]
It is necessary to include different types of controls depending on application of LDH assay.
1. Maximum LDH control: It is recommended to perform maximum LDH estimation to determine total amount of LDH present in the cells.
2. Background control: Significant amount of LDH is present in the serum used for supplementing the culture medium. This contributes to the background absorbance / […]
without cells. Absorbance/fluorescence of background control wells should be subtracted from absorbance / fluorescence values of experimental wells to get corrected
3. Untreated control: Untreated control, also known as vehicle control should be included in the assay to obtain LDH values generated due to the solvent in which test compound is […]
(1 picture or pasted object on this page, not shown here) […]
dissolved. Untreated control wells contain the solvent at a concentration used for dissolving […]
• Preparation of cells: Freshly harvested MCF-7 cells for assay. Seeded in the 96well […]

For the next data set, the system named is MDA-MB-453 cells. Nature of the data set: MTT cell viability assay in MDA-MB-453 cells. Particulars: Homo sapiens, read-out: Cell Viability (%) ± SD; for viability at 1 µM: MDA-MB-453, 1 µM; for viability at 10 µM: MDA-MB-453, 10 µM; for viability at 25 µM: MDA-MB-453, 25 µM. The source says:
MDA-MB-231 represents a specific subtype, known as the triple negative breast cancer (TNBC). […] We also included normal mammary epithelial MCF-10A cells in our experiments to confirm if the growth-inhibitory activities of the selected compounds are truly cancer cell-specific. […] Furthermore, none of these compounds did have any growth inhibitory activity against normal breast epithelial cell (MCF-10A). The IC50 values for these compounds against MDA-MB-231 cells (Fig. 2) are also included in Table 4 for comparison. Cell viability assay was performed as per standard protocols. After 72 h of cell incubation in the presence or absence of each compound, cell viability was evaluated by using MTT ((3-(4,5-dimethylthiazol-2-yl)-2,5-diphenyltetrazolium bromide)) (Himedia Pvt. Ltd, India). In brief, this is a homogeneous, colorimetric method for determining the number of viable cells in proliferation, cytotoxicity or chemosensitivity assays. MTT is bio reduced by cells into a formazan product that is […]. After 72 h of compound treatment, the medium was removed and 100 μL of MTT (0.5 mg ml^−1 in media) was added to the cells and kept in the dark for 3 h at 37 °C in the CO2 incubator and the formazan formed was dissolved in 100 μL DMSO (Dimethyl Sulfoxide). The absorbance of the formazan product at 595 nm was measured directly from 96-well assay plates without additional processing using a multimode plate reader (Bio-Rad) (iMark, India), as absorbance is directly proportional to the number of viable cells in culture. The percentage of viable cells in each group is determined with respect to the untreated control cells.

With `O=[N+]([O-])c1ccc2[nH]cc(-c3cc(C[C@@H]4O[C@H](CO)[C@@H](O)[C@H](O)[C@H]4O)no3)c2c1` [Compound 34, (2 R,3 S,4 R,5 R,6 S)-2-(hydroxymethyl)-6-((5-(5-nitro-1H-indol-3-yl)isoxazol-3-yl)methyl) tetrahydro-2H-pyran-3,4,5-triol], in data set [1], the viability at 10 µM amounted to 68.4 ± 5.36%, the viability at 25 µM is 46.1 ± 3.32%, the viability at 50 µM is 43.4 ± 0.26% and half-maximal inhibition (IC50) required 22.3 µM. Besides, in the data set on MCF-7 cells, the cytotoxicity at 25 µM worked out at 31.2% and the “% Cytotoxicity (LDH release relative to maximum LDH control)” value is recorded as 31%. Further, in the data set on MDA-MB-453 cells, the viability at 1 µM turned out to be 92.5 ± 4.6%, the viability at 10 µM was determined as 80.9 ± 1.2% and the viability at 25 µM is 66.8 ± 1.7%.

For the compound `O=C(/C=C/c1c[nH]c2ccc(Cl)cc12)C[C@@H]1O[C@H](CO)[C@@H](O)[C@H](O)[C@@H]1O` [Compound 20, (E)-4-(5-chloro-1H-indol-3-yl)-1-((2S,3S,4R,5S,6R)-3,4,5-trihydroxy-6-(hydroxymethyl)tetrahydro-2H-pyran-2-yl)but-3-en-2-one], in data set [1], the viability at 10 µM worked out at 56.7 ± 23.2%, the viability at 25 µM is 54.3 ± 16.3% and the viability at 50 µM is 62 ± 4.91%. In the data set with MCF-7 cells, the cytotoxicity at 25 µM came to 7.78% and the “% Cytotoxicity (LDH release relative to maximum LDH control)” value was found to be 8%. In addition, in the data set on MDA-MB-453 cells, the viability at 1 µM was determined as 105 ± 8.1%, the viability at 10 µM is 74.8 ± 1.5% and the viability at 25 µM came to 66.4 ± 3.2%.

For `O=C(/C=C/c1c[nH]c2ccccc12)C[C@@H]1O[C@H](CO)[C@@H](O)[C@H](O)[C@H]1O` [Compound 9, (E)-4-(1H-indol-3-yl)-1-((2S,3R,4R,5S,6R)-3,4,5-trihydroxy-6-(hydroxymethyl)tetrahydro-2H-pyran-2-yl)but-3-en-2-one], in data set [1], the viability at 10 µM stood at 71.1 ± 10.5%, the viability at 25 µM was 54 ± 11.2%, the viability at 50 µM was determined as 36.3 ± 4.29% and inhibition was half-maximal at 30.6 µM (IC50). In the data set with MCF-7 cells, the cytotoxicity at 25 µM amounted to 12.9% and the “% Cytotoxicity (LDH release relative to maximum LDH control)” value worked out at 13%. In the data set on MDA-MB-453 cells, the viability at 1 µM was determined as 80.6 ± 8%, the viability at 10 µM came out at 76.4 ± 5.4% and the viability at 25 µM was determined as 96.1 ± 35.7%.

On to `OC[C@H]1O[C@@H](Cc2cc(-c3c[nH]c4ccccc34)on2)[C@H](O)[C@@H](O)[C@H]1O` [Compound 37, (2 S,3 R,4 R,5 R,6 R)-2-((5-(1H-indol-3-yl)isoxazol-3-yl)methyl)-6-(hydroxymethyl) tetrahydro-2H-pyran-3,4,5-triol], for which, in data set [1], the viability at 10 µM amounted to 74.8 ± 10.7%, the viability at 25 µM is 76.4 ± 10.4% and the viability at 50 µM is 64.4 ± 7.77%. The cytotoxicity at 25 µM in the data set with MCF-7 cells amounted to 36.4%. Moreover, in the data set on MDA-MB-453 cells, the viability at 1 µM turned out to be 95.4 ± 4.8%, the viability at 10 µM turned out to be 76.4 ± 5.4% and the viability at 25 µM amounted to 96.1 ± 35.7%.

Consider `OC[C@H]1O[C@@H](CC2=NNC(c3c[nH]c4ccccc34)C2)[C@H](O)[C@@H](O)[C@H]1O` (stereo partly drawn) [Compound 25, (2 S,3 R,4 R,5 R,6 R)-2-((5-(1H-indol-3-yl)-4,5-dihydro-1H-pyrazol-3-yl)methyl)-6-(hydroxy-methyl)tetrahydro-2H-pyran-3,4,5-triol], for which, in data set [1], the viability at 10 µM was 97.6 ± 3.36%, the viability at 25 µM is 54.2 ± 7.06%, the viability at 50 µM came to 43.8 ± 13% and it took 35.5 µM to reach half-maximal inhibition (IC50). For the same compound, in the data set with MCF-7 cells, the cytotoxicity at 25 µM came out at 21.8% and the “% Cytotoxicity (LDH release relative to maximum LDH control)” value stood at 22%. In the data set with MDA-MB-453 cells, the viability at 1 µM was found to be 88.8 ± 5.2%, the viability at 10 µM amounted to 78.3 ± 4.7% and the viability at 25 µM is 69.6 ± 5.3%.
